This note sets out measurements from article PMC6257776, “Synthesis and Antitumor Activity of Diterpenylhydroquinone Derivatives of Natural Ent-Labdanes” (Molecules, 2010).

Data set [1] relates to DU-145 human prostate cancer cells. The experiment in a line: SRB cell growth inhibition assay, DU-145. The format is cell-based. Particulars: DU-145 cells, 72 h exposure, read-out: Cytotoxicity IC50, DU-145. As to the method:
(§1) The antitumor cytotoxicity of the compounds was evaluated in vitro against […] different cancer cell lines: PC-3 and DU-145 human prostate cancer, MCF-7 and MDA-MB-231 breast carcinoma and one non-tumoral cell line, dermal human fibroblasts (DHF). A conventional colorimetric assay was set up to estimate the IC50 values, which represent the concentration of a drug that is required for 50% inhibition in vitro after 72 h of continuous exposure to the test compounds. Four serial dilutions (from 12.5 to 100 µM) for each sample were evaluated in triplicate. The results obtained from these assays are shown in Table 1 and the following general observations can be made as a result: the natural ent-labdanes derivatives 3-5 (IC50 > 100) were the least cytotoxic of the series.
(§2) The colorimetric assay using sulforhodamine B (SRB) was realized following an adaptation of the described method by Skehan et al.. Cells were seeded in 96-well microtiter plates, at5 × 10^3 cells per well in aliquots of 100 µL of DMEM/F-12 medium, and they were allowed to attach to the plate surface by growing in drug-free medium for 18 h. Afterward, compounds samples were added in aliquots (dissolved in EtOH/H2O) to achieve a final concentration of 100, 50, 25 12.5 µM. After 72 h exposure, the in vitro cytotoxicity was measured by the SRB dye assay. Cells were fixed by adding cold 50% (wt/vol) trichloroacetic acid (TCA, 25 µL) and incubating for 60 min at 4 °C. Plates were washed with deionized water and dried; SRB solution (0.1% wt/vol in 1% acetic acid, 50 µL) was added to each microtiter well and incubated for 30 min at room temperature. Unbound SRB is removed by washing with 1% acetic acid. Plates were air-dried and bound stain was solubilized with Tris base (100 µL, 10 mM). Optical densities were read on an automated spectrophotometer plate reader at a single wavelength of 540 nm. Values shown are the % viability vs. ctrl + SD, n = four independent experiments in triplicate.

Data set [2] concerns MCF-7 breast carcinoma cells. In words: SRB cell growth inhibition assay, MCF-7. To be noted: for IC50: Homo sapiens, MCF7, MCF-7 cells, 72 h exposure, SRB, read-out: Cytotoxicity IC50, MCF-7; for cytotoxic bioactivity against MCF-7 (in words): MCF-7 breast carcinoma. It counts as cell-based, human. As to the method: as §1, §2
The subject of data set [3] is MDA-MB-231 breast carcinoma cells. The experiment in a line: SRB cell growth inhibition assay, MDA-MB-231. It counts as cell-based, human. To be noted: for IC50: Homo sapiens, MDA-MB-231 cells, 72 h exposure, SRB, read-out: Cytotoxicity IC50, MDA-MB-231; for cytotoxic bioactivity against MDA-MB-231 (in words): MDA-MB-231 breast carcinoma. The procedure: as §1, §2
The subject of data set [4] is PC-3 human prostate cancer cells. The experiment in a line: SRB cell growth inhibition assay, PC-3. The format is cell-based. Particulars: PC-3 cells, 72 h exposure, read-out: Cytotoxicity IC50, PC-3. The procedure:
as §1, §2

Data set [5] in a line: SRB cell growth inhibition assay, DHF (non-tumoral). It counts as cell-based. Particulars: dermal human fibroblasts (DHF), non-tumoral cells, 72 h exposure, read-out: Cytotoxicity IC50, DHF. The procedure: as §1, §2

On to `C=C1CC[C@@H]2C(C)(C)C[C@@H](OC(C)=O)C[C@@]2(C)[C@@H]1CC/C(C)=C/CO` [Compound 3], for which the IC50 in data set [1], in data set [2], in data set [3] and in data set [4] was > 100 µM in each case. The IC50 (in general, the concentration that gives 50% inhibition) at 72 h in data set [5] was > 100 µM.

On to `C=C1CC[C@@H]2C(C)(C)C[C@@H](O)C[C@@]2(C)[C@@H]1CC/C(C)=C/CO` [Compound 4], for which the IC50 in data set [1] was > 100 µM; in data set [2], 90.6 µM; in data set [3], > 100 µM; in data set [4], > 100 µM. The IC50 at 72 h in data set [5] is > 100 µM.

On to `C=C1CC[C@@H]2C(C)(C)C[C@@H](OC(C)=O)C[C@@]2(C)[C@@H]1CC/C(C)=C\CO` [Compound 5], for which the IC50 in data set [1], in data set [2], in data set [3] and in data set [4] was > 100 µM in each case. In data set [5], the IC50 at 72 h is > 100 µM.

As to `C=C1CC[C@@H]2C(C)(C)C[C@@H](O)C[C@@]2(C)[C@@H]1CC/C(C)=C\CO` [Compound 6], the IC50 in data set [1] was 96.2 µM; in data set [2], 74.9 µM; in data set [3], 96 µM; in data set [4], > 100 µM. Moreover, the IC50 at 72 h in data set [5] is > 100 µM.

As to `C=C1CC[C@@H]2C(C)(C)C[C@@H](OC(C)=O)C[C@@]2(C)[C@@H]1CC/C(C)=C/Cc1cc(O)ccc1O` [Compound 7], the IC50 in data set [1] came out at 44.6 µM; in data set [2], 23.9 µM; in data set [3] it was 75.9 µM; in data set [4], 21.4 µM. Besides, in data set [5], the IC50 at 72 h was > 100 µM.

Consider `C=C1CC[C@@H]2C(C)(C)C[C@@H](O)C[C@@]2(C)[C@@H]1CC/C(C)=C/Cc1cc(O)ccc1O` [Compound 8], for which the IC50 in data set [1] turned out to be 37.6 µM; in data set [2], 34 µM; in data set [3] it was 61.8 µM; in data set [4], 28.2 µM. Also, the IC50 at 72 h in data set [5] is > 100 µM.

As for `C=C1CC[C@@H]2C(C)(C)C[C@@H](OC(C)=O)C[C@@]2(C)[C@@H]1CC/C(C)=C/Cc1cc(OC(C)=O)ccc1OC(C)=O` [Compound 9, 2β-Acetoxy-15-phenyl-(22,25-acetoxy)-ent-labda-8(17),13(E)-diene], the IC50 in data set [1] came to 62.9 µM; in data set [2], 41.1 µM; in data set [3], 33.8 µM; in data set [4] it was 64.3 µM. Further, the “cytotoxic bioactivity against MCF-7 (in words)” value in data set [2] was “showed cytotoxic bioactivity”. Further, the “cytotoxic bioactivity against MDA-MB-231 (in words)” value in data set [3] is “showed cytotoxic bioactivity”. The IC50 at 72 h in data set [5] was 72.3 µM.

In the case of `C=C1CCC2C(C)(C)CC(O)CC2(C)C1CCC(C)=CCc1c(OC)cc(OC)cc1OC` (stereo not drawn) [Compound 10, 2β-Hydroxy-15-phenyl-(22,24,26-trimethoxy)-ent-labda-8(17),13(E)-diene], the IC50 in data set [1] is > 100 µM; in data set [2], 45.6 µM; in data set [3], 85.9 µM; in data set [4], 91.2 µM. Also, in data set [2], the “cytotoxic bioactivity against MCF-7 (in words)” value is recorded as “showed cytotoxic bioactivity”. In data set [3], the “cytotoxic bioactivity against MDA-MB-231 (in words)” value is listed as “showed cytotoxic bioactivity”. The IC50 at 72 h in data set [5] was > 100 µM.

Consider `C=C1CC[C@@H]2C(C)(C)C[C@@H](O)C[C@@]2(C)[C@@H]1CC/C(C)=C/COC(C)=O` [Compound 11, 2β-Hydroxy-15-acetoxy-ent-labda-8(17),13(E)-diene], for which the IC50 in data set [1] is > 100 µM; in data set [2] it was 86.9 µM; in data set [3] it was > 100 µM; in data set [4] it was 35.6 µM. The IC50 at 72 h in data set [5] was > 100 µM.
